From patent US20070037887A1, “Blockade of mtor to prevent a hormonal adaptive response” (University of Virginia Patent Foundation, priority 2003, published 2007) come the findings set out here.

One series addresses T1, mTOR-mLST8 (Homo sapiens, UniProt P42345+Q9BVC4).
T1 construct: expressed in transfected cells; host or cells: 293T
The series is described as follows: Coimmunoprecipitation of mLST8 with mTOR from 293T cells incubated with compound. The series is classed as cell-based. The settings on record: nontransfected 293T cells; much less pronounced than effect on raptor. The method, then:
FIG. 11A & 11B represent data showing FTS inhibits PHAS-I phosphorylation and promotes dissociation of the mTOR-raptor complex in 293T cells. 293T cells were transfected with pcDNA3AU1-mTOR, pcDNA33HARaptor, pcDNA33HA-mLST8, and pCMV-Tag3APHAS-I (FIG. 11A). After 18 h the cells were incubated for 1 h with increasing concentrations of FTS before extracts were prepared. A sample of each extract was subjected to SDS-PAGE and immunoblotted to detect PHAS-I or PThr^36/45. AU1-mTOR was also immunoprecipitated from each extract, and immune complexes were subjected to SDSPAGE and immunoblotted with mTAb2, to detect mTOR, and with anti-HA antibodies, to detect HA-mLST8 and HA-raptor. Nontransfected 293T cells were incubated with increasing concentrations of FTS for 1 h before extracts were prepared. mTOR was immunoprecipitated with mTAb1, and samples were subjected to SDS-PAGE.
FIGS. 12A & 12B represent data showing the effects of incubating cells with increasing concentrations of FTS and GTS on mTOR activity and mTOR association with raptor and mLST8. AU1-mTOR, HA-raptor, and HAmLST8 were overexpressed in 293T cells. The cells were then incubated for 1 h with increasing concentrations of FTS (●, ▴, ▪) or GTS (∘, Δ, □) before extracts were prepared. Immunoprecipitations were then conducted with anti-AU1 antibodies. mTOR kinase activity (●, ∘) was determined by measuring ^32P incorporation into [His^6]PHAS-I in immune complex kinases assays performed with [γ-^32P]ATP. The relative amounts of HA-raptor (▴, Δ) and HA-mLST8 (▪, □) that coimmunoprecipitated with AU1-mTOR were determined after immunoblotting with anti-HA antibodies. The results (mean values±S.E. from 3 experiments) are expressed as percentages of the mTOR activity (FIG. 12A) or coimmunoprecipitating proteins (FIG. 12B) from samples incubated without FTS or GTS, and have been corrected for the amounts of AU1-mTOR immunoprecipitated.
To investigate further the inhibitory effects of FTS on mTOR signaling, the effect of the drug on the association of mTOR, raptor, and mLST8 was determined. […]

Another series has as its system MCF-7 cells. The series is described as follows: Apoptosis ELISA (Cell Death Detection Kit), MCF-7 cells. The series is classed as cell-based, human. To be noted: three day treatment. The procedure:
FIG. 6 is a bar graph portraying data representing the induction of apoptosis in MCF-7 and LTED cells by FTS. Eighty thousand MCF-7 and LTED cells were plated into each well of 12-well plates in their culture media. Two days later, the cells were treated with FTS for 3 days. Apoptosis was measured using a Cell Death Detection Kit from Roche Molecular Biochemicals. Parallel plates subjected to identical treatment were prepared for cell counting. The results were expressed as the values of optical density at 405 nm per 10,000 cells.
Applicants postulated that these cells might also have become sensitized to the pro-apoptotic effects of estradiol. To test this hypothesis, an ELISA assay was used to assess apoptosis and to compare the effects of estradiol in wild-type and LTED cells. […] The presence of apoptosis in LTED cells was confirmed by the measurement of annexin V and the use of time-lapse microscopy.
The effect of a three day treatment with FTS on apoptosis in MCF-7 and LTED cells was examined using the ELISA assay for quantitation. […] LTED cells were much more sensitive than MCF-7 cells to the apoptotic effects of FTS.

For series [1], the system named is ERK1/2 MAP kinase, Akt, p70 S6 kinase, PHAS-I phosphorylation in MCF-7 cells. Kind of series: Western analysis of serum-stimulated kinase phosphorylation, MCF-7 cells. It counts as cell-based, human. To be noted: FTS 24 h. The procedure:
FIGS. 7A-7D represent data showing the effect of FTS on serum-stimulated activation of MAP kinase, PI3 kinase, and mTOR. Subconfluent MCF-7 and LTED cells grown in 60 mm dishes were treated with FTS in their culture media for 24 h. Cells were then harvested and cell lysate prepared. Phosphorylation of ERK1/2 MAP kinase (FIG. 7A), Akt at Ser^473 (FIG. 7B), p70 S6 kinase at Thr^389 (FIG. 7C), and PHAS-I at Ser^65 (FIG. 7D) was detected by Western analysis using specific antibodies and quantitated by densitometry scanning.
The levels of phosphorylated ERK1/2 MAPK, Akt (Ser^473), p70S6K (Thr^389) and PHAS-1 (Ser^65) were consistently elevated in LTED cells compared to those in wild type MCF-7 cells as indicated by Western blot analysis using specific antibodies against phosphorylated ERK 1/2 (FIG. 7A), Akt (FIG. 7B), p70S6 kinase (FIG. 7C) and PHAS-1 (FIG. 7D). […] (FIGS. 7C & 7D).

Another series can be described thus: Solubility in buffer. The series is classed as physicochemical.
In another series the test system is JNK. Kind of series: JNK activation in LTED cells cultured in vitro. The series is classed as cell-based, human. An excerpt:
FIGS. 17A & 17B represent data showing the effects of FTS on JNK activation in LETD cells cultured in vitro.
FIGS. 17A & 17B represent data showing the effects of FTS on JNK activation in LTED cells cultured in vitro. […] JNK activation has been reported to be associated with apoptosis.

Molecules are shown by their SMILES.

T1 sequence (Q9BVC4 whole entry, other chains not shown): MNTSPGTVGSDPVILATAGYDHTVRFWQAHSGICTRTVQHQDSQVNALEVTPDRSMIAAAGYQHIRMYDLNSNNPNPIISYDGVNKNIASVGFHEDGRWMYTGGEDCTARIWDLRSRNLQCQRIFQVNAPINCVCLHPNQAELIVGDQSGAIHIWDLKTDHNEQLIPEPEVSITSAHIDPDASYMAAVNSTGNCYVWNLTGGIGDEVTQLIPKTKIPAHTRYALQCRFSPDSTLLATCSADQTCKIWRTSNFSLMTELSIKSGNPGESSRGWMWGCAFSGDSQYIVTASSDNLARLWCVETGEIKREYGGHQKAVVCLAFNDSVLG

As for `CC(C)=CCC/C(C)=C/CC/C(C)=C/CSc1ccccc1C(=O)O` [FTS, farnesylthiosalicylic acid], the “amount of endogenous mLST8 that coimmunoprecipitated with mTOR” value on mTOR-mLST8 is reported as “also decreased”. The induction of apoptosis result with MCF-7 cells (FTS 75 μM) is “dramatic increase in apoptosis”; in the series with MCF-7 cells (FTS 20 and 50 μM), “did not induce apoptosis”. Moreover, in series [1], the “fall of phosphorylated ERK1/2 and 4E BP 1” value is given as “approximately 50%”. In addition, in series [1], the “p70 S 6 kinase and phospho-AKT” value was “inconsistent decrements”. For the same compound, the solubility in buffer result in “Solubility in buffer” is recorded as “only limited solubility”. In addition, the JNK activation entry with JNK is listed as “stimulates JNK activation”.
